From patent publication US10294207B2, “Pyrazole derivatives as TNIK, IKKϵ and TBK1 inhibitor and pharmaceutical composition comprising same” (GREEN CROSS CORPORATION, priority 2015, dated 2019)

How the values were obtained:
Type in all cases: biochemical
Conditions in all cases: luminometer
TBK1 = biological target: T1, TBK1 (Homo sapiens, UniProt Q9UHD2); test: TBK1 inhibition, ADP-Glo Kinase Assay
T1 construct: purchased Promega V3991
T1 sequence (Q9UHD2 1-729): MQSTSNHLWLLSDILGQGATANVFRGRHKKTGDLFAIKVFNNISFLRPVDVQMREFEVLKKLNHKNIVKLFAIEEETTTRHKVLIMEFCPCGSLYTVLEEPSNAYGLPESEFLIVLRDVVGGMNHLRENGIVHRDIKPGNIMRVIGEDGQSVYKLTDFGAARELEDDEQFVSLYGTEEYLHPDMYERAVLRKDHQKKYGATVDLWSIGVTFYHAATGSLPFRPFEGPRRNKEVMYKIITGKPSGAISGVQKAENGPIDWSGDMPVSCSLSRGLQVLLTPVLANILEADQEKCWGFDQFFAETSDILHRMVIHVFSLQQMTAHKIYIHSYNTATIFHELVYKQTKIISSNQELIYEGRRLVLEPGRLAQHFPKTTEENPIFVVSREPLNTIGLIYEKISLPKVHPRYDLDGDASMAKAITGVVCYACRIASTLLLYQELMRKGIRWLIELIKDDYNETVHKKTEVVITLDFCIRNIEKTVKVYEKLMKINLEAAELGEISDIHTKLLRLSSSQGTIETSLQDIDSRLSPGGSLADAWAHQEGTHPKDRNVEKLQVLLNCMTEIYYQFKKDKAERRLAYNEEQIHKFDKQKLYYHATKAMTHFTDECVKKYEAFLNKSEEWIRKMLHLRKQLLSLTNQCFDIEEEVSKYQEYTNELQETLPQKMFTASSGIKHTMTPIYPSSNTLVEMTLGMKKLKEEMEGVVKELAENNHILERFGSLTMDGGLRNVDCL
Method in brief: (§1)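 ADP-Glo luminescence reported ADP produced by each kinase, following the kit protocol. Reactions used commercial kinase enzyme systems in buffer of 40 mM Tris (pH 7.5), 20 mM MgCl2 and 0.1 mg/mL BSA.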

IKKε = biological target: T2, IKKε (Homo sapiens, UniProt Q14164); test: IKKε inhibition, ADP-Glo Kinase Assay
T2 construct: purchased Invitrogen PR8031B
T2 sequence (Q14164 1-716): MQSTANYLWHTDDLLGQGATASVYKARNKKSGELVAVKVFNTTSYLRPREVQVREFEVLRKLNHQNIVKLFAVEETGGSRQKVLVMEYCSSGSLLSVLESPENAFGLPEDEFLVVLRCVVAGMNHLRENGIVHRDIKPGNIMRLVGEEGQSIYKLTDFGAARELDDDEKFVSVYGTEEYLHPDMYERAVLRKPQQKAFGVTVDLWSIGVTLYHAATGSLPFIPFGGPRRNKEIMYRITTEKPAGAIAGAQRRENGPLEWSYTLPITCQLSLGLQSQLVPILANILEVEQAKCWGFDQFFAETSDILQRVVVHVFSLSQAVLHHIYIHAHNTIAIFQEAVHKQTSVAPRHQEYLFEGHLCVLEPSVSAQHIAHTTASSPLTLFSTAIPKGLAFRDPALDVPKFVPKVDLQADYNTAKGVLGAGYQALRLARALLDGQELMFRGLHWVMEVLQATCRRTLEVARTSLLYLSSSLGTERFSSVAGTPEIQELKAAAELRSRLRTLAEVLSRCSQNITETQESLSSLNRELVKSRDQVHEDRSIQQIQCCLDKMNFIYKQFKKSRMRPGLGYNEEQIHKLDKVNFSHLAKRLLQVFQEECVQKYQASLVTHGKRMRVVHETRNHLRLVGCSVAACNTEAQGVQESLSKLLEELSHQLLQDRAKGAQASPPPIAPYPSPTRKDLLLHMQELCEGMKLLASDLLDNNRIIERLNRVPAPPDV
Method in brief: as §1

TNIK = biological target: T3, TNIK (Homo sapiens, UniProt Q9UKE5); test: TNIK inhibition, ADP-Glo Kinase Assay
T3 construct: purchased Promega V4158
T3 sequence (Q9UKE5 1-367 limits assumed): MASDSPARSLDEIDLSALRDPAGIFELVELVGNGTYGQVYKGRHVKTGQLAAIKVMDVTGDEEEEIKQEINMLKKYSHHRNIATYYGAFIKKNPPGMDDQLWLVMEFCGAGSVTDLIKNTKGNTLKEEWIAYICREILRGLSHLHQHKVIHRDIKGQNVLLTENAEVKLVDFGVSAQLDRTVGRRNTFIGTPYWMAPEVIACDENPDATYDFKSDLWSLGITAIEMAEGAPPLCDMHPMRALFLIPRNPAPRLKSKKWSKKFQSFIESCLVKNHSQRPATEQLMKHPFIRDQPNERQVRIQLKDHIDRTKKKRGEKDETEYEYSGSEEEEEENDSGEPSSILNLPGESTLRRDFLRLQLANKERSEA
Method: Inhibition activities on TNIK, IKKε and TBK1 were evaluated using the compounds of Examples 1 to 254.
The inhibition activities on TNIK, IKKε and TBK1 were measured by a luminometer, TNIK/IKKε/TBK1 Kinase Enzyme System (Promega, Ca# V4158; Invitrogen, PR8031B, Promega, Ca# V3991) and ADP-Glo Kinase Assay using ADP-Glo™ Kinase Analysis Kit (Promega, Ca# V9101) and a kinase reaction buffer [40 mM Tris(pH 7.5), 20 mM MgCl2, 0.1 mg/mL BSA] in accordance with the manufacturer's protocol.

IC50 (TBK1) [µM]	IC50 (IKKε) [µM]	IC50 (TNIK) [µM]	TNIK (μM), inhibition activity (TNIK)	SMILES
0.078	0.36	–	–	O=C(NCc1cccs1)c1ccc2[nH]nc(NC(=O)c3ccc(-n4ccnc4)cc3)c2c1 [Example 212, 3-(4-(1H-Imidazol-1-yl)benzamido)-N-(thiophen-2-ylmethyl)-1H-indazole-5-carboxamide]
0.0044	0.069	–	–	CN1CCC(Nc2ccc(C(=O)Nc3n[nH]c4ccc(C(=O)NCc5cccs5)cc34)cc2)CC1 [Example 213]
0.27	0.59	–	–	CC(NC(=O)c1ccc2[nH]nc(NC(=O)c3ccc(F)cc3)c2c1)c1ccncc1 (centres unmarked) [Example 214, 3-(4-Fluorobenzamido)-N-(1-(pyridin-4-yl)ethyl)-1H-indazole-5-carboxamide]
0.021	0.32	–	–	CC(C)(NC(=O)c1ccc2[nH]nc(NC(=O)c3ccc(F)cc3)c2c1)c1cccs1 [Example 215, 3-(4-Fluorobenzamido)-N-(2-(thiophen-2-yl)propan-2-yl)-1H-indazole-5-carboxamide]
3.7	5.25	–	–	O=C(Nc1n[nH]c2ccc(C(=O)NC3(c4ccccn4)CC3)cc12)c1ccc(F)cc1 [Example 216, 3-(4-Fluorobenzamido)-N-(1-(pyridin-2-yl)cyclopropyl)-1H-indazole-5-carboxamide]
0.52	0.65	–	–	O=C(Nc1n[nH]c2ccc(C(=O)NC3(c4cccnc4)CC3)cc12)c1ccc(F)cc1 [Example 217, 3-(4-Fluorobenzamido)-N-(1-(pyridin-3-yl)cyclopropyl)-1H-indazole-5-carboxamide]
1.2	–	0.36	–	Cc1cnc(-c2cc3[nH]nc(NC(=O)c4ccccc4)c3s2)o1 [Example 220, N-(5-(5-methyloxazol-2-yl)-1H-thieno[3,2-c]pyrazol-3-yl)benzamide]
1.7	–	0.65	–	Cc1cnc(-c2cc3[nH]nc(NC(=O)c4ccc(F)cc4)c3s2)o1 [Example 221, 4-fluoro-N-(5-(5-methyloxazol-2-yl)-1H-thieno[3,2-c]pyrazol-3-yl)benzamide]
0.12	–	0.15	–	Cc1cnc(-c2cc3[nH]nc(NC(=O)c4ccc(NCCN5CCCC5)cc4)c3s2)o1 [Example 226, N-(5-(5-methyloxazol-2-yl)-1H-thieno[3,2-c]pyrazol-3-yl)-4-((2-(pyrrolidin-1-yl)ethyl)amino)benzamide]
0.12	–	0.085	–	Cc1cnc(-c2cc3[nH]nc(NC(=O)c4ccc(NCCN5CCOCC5)cc4)c3s2)o1 [Example 227, N-(5-(5-methyloxazol-2-yl)-1H-thieno[3,2-c]pyrazol-3-yl)-4-((2-morpholinoethyl)amino)benzamide]
0.12	–	0.11	–	Cc1cnc(-c2cc3[nH]nc(NC(=O)c4ccc(NCCO)cc4)c3s2)o1 [Example 228, 4-((2-hydroxyethyl)amino)-N-(5-(5-methyloxazol-2-yl)-1H-thieno[3,2-c]pyrazol-3-yl)benzamide]
1.7	–	0.66	–	Cc1cnc(-c2cc3[nH]nc(NC(=O)c4cccc(F)c4)c3s2)o1 [Example 230, 3-fluoro-N-(5-(5-methyloxazol-2-yl)-1H-thieno[3,2-c]pyrazol-3-yl)benzamide]
–	–	1.79	–	CCNC(=O)c1cc2[nH]nc(-c3ccc(N(C)C)cc3)c2s1 [Example 237, 3-(4-(dimethylamino)phenyl)-N-ethyl-1H-thieno[3,2-c]pyrazole-5-carboxamide]
–	–	1.01	–	CCc1cnc(-c2cc3[nH]nc(-c4ccc(N5CCOCC5)cc4)c3s2)o1 [Example 244, 4-(4-(5-(5-ethyloxazol-2-yl)-1H-thieno[3,2-c]pyrazol-3-yl)phenyl)morpholine]
–	–	8.09	–	O=C(c1cc2[nH]nc(-c3ccc(N4CCOCC4)cc3)c2s1)N1CCCC1 [Example 248, (3-(4-morpholinophenyl)-1H-thieno[3,2-c]pyrazol-5-yl)(pyrrolidin-1-yl)methanone]

The next lines start with the compound.

SMILES	IC50 (TBK1) [µM]	IC50 (IKKε) [µM]	IC50 (TNIK) [µM]	TNIK (μM), inhibition activity (TNIK)
CCC(NC(=O)c1ccc2[nH]nc(NC(=O)c3ccc(N4CCN(C(C)=O)CC4)cc3)c2c1)c1ccsc1 (centres unmarked) [Example 209, 3-(4-(4-Acetylpiperazin-1-yl)benzamido)-N-(1-(thiophen-3-yl)propyl)-1H-indazole-5-carboxamide]	0.0029	0.015	–	–
CC(=O)Nc1ccc(C(=O)Nc2n[nH]c3ccc(C(=O)NCc4cccs4)cc23)cc1 [Example 211, 3-(4-Acetamidobenzamido)-N-(thiophen-2-ylmethyl)-1H-indazole-5-carboxamide]	0.0013	0.079	–	–
Cc1cnc(-c2cc3[nH]nc(NC(=O)c4ccc(N5CCOCC5)cc4)c3s2)o1 [Example 218, N-(5-(5-methyloxazol-2-yl)-1H-thieno[3,2-c]pyrazol-3-yl)-4-morpholinobenzamide]	–	–	0.048	–
Cc1cnc(-c2cc3[nH]nc(NC(=O)c4ccc(N5CCOCC5)cc4)c3s2)s1 [Example 219, N-(5-(5-methylthiazol-2-yl)-1H-thieno[3,2-c]pyrazol-3-yl)-4-morpholinobenzamide]	0.33	–	0.13	–
COc1ccc(C(=O)Nc2n[nH]c3cc(-c4ncc(C)o4)sc23)cc1 [Example 222, 4-methoxy-N-(5-(5-methyloxazol-2-yl)-1H-thieno[3,2-c]pyrazol-3-yl)benzamide]	0.35	–	0.31	–
Cc1cnc(-c2cc3[nH]nc(NC(=O)c4ccc(N(C)C)cc4)c3s2)o1 [Example 223, 4-(dimethylamino)-N-(5-(5-methyloxazol-2-yl)-1H-thieno[3,2-c]pyrazol-3-yl)benzamide]	0.094	–	0.11	–
COCCNc1ccc(C(=O)Nc2n[nH]c3cc(-c4ncc(C)o4)sc23)cc1 [Example 229, 4-((2-methoxyethyl)amino)-N-(5-(5-methyloxazol-2-yl)-1H-thieno[3,2-c]pyrazol-3-yl)benzamide]	0.14	–	0.15	–
COC(=O)c1cc2[nH]nc(-c3ccc(N(C)C)cc3)c2s1 [Example 234, methyl 3-(4-(dimethylamino)phenyl)-1H-thieno[3,2-c]pyrazole-5-carboxylate]	–	–	–	insoluble
CCNC(=O)c1cc2[nH]nc(-c3ccccc3)c2s1 [Example 238, N-ethyl-3-phenyl-1H-thieno[3,2-c]pyrazole-5-carboxamide]	–	–	3.47	–
COC(=O)c1cc2[nH]nc(-c3ccc(NC(C)=O)cc3)c2s1 [Example 245, methyl 3-(4-acetamidophenyl)-1H-thieno[3,2-c]pyrazole-5-carboxylate]	–	–	0.16	–
Cc1cnc(-c2cc3[nH]nc(-c4ccc(F)cc4)c3s2)o1 [Example 246, 2-(3-(4-fluorophenyl)-1H-thieno[3,2-c]pyrazol-5-yl)-5-methyloxazole]	–	–	0.5	–
Cc1cnc(-c2cc3[nH]nc(-c4ccc(F)cc4)c3s2)s1 [Example 247, 3-(4-fluorophenyl)-5-(5-methylthiazol-2-yl)-1H-thieno[3,2-c]pyrazole]	–	–	> 20	–
COC(=O)c1cc2[nH]nc(-c3ccc(OCCN4CCOCC4)cc3)c2s1 [Example 249, methyl 3-(4-(2-morpholinoethoxy)phenyl)-1H-thieno[3,2-c]pyrazole-5-carboxylate]	–	–	0.47	–
Cc1cnc(-c2cc3[nH]nc(-c4ccc(OCCN5CCOCC5)cc4)c3s2)o1 [Example 250, 4-(2-(4-(5-(5-methyloxazol-2-yl)-1H-thieno[3,2-c]pyrazol-3-yl)phenoxy)ethyl)morpholine]	–	–	0.11	–
